Reference: patent US20250011272A1, “LONG-CHAIN COMPOUND THAT ACTS ON ACLY, PREPARATION METHOD THEREFOR AND USE THEREOF” (SHANGHAIINSTITUTE OF MATERIA MEDICA, CHINESE ACADEMY OF …, priority 2021, published 2025)
Where two headings read alike, the source gives them in different places.

Key:
[1] = biological target: Human ACLY (Homo sapiens (Human), UniProt P53396); test: ACLY enzyme activity test (ADP-Glo luminescence); type: biochemical; settings: 37° C., 30 minutes
Text: • Instrument: Envision (PerkinElmer, USA) • Materials: Acl—human ACLY/acly/ATP citrate lyase protein (His tag) was purchased from Sino Biological; kinase assay kit ADP-GLO (promega #V9102).
Experimental principle: In this experiment, the ATP-dependent citrate lyase ACL catalyzes the conversion of citrate to acetyl coenzyme A, which in turn produces malonyl coenzyme A, a precursor molecule for fatty acid synthesis, and this reaction is accompanied by ATP depletion, so the change in ATP can be detected using the ADP-Glo Kinase Assay (#V9102) to indirectly reflect the inhibitory effect of the compound on the enzymatic activity of ACL. This kinase detection kit can quantitatively determine the amount of ADP catalyzed by ACLY enzyme activity. (First, the compound, the enzyme and the substrate are incubated at 37 degrees for half an hour, ADP-Glo& #V9102; reagent is added and incubated for half an hour to terminate the reaction and consume the remaining ATP; then the kinase detection reagent is added (which converts the ADP to ATP while also detecting the newly synthesized ATP using the coupled […] reaction) and incubated for half an hour. The value is read by using Envision.
Experimental method: ADP Glo luminescence method was used for determination. It reflects the activity of ACLY enzyme by quantitatively detecting the amount of ADP, and the enzymatic reaction catalyzed by ACLY is proportional to the amount of ADP detected by the luminescent signal. Firstly, the compound is diluted with 10% DMSO, and then […] of compound dilution is added to a 5 μl reaction system, so that the final reaction system has a DMSO content of 2%. The enzymatic reaction catalyzed by ACLY was carried out at 37° C. for 30 minutes. 5 μl reaction mixture contained the following components: 40 mM Tris, pH 8.0, 10 mM MgCl2, 5 mM DTT, ATP, CoA, sodium citrate, and ACLY. After the enzymatic reaction was complete, 2.5 μl of ADP Glo reagent was added to each reaction system and incubated at room temperature for 1 hour. Afterwards, 5 μl of kinase detection reagent was added and incubated at room temperature for 30 minutes. The luminous signal was detected using Envision (PerkinElmer, USA).
Data processing: For compound, the activity dose dependent relationship was tested. IC50 value was obtained by non-linear fitting of sample concentration based on sample activity. The software used for calculation was Graphpad Prism 7, and the model used for fitting was sigmoid dose response (variable slope). For most inhibitor screening models, the bottom and top of the fitting curve were set to 0 and 100. In general, each sample is set with multiple wells (n≥2) during testing, which are represented in the results as Standard Deviation (SD) or Standard Error (SE).

[2] = tested on: A549 cells; test: MTS cell proliferation assay, A549; type: cell-based; settings: Homo sapiens, A549, 72 hours, 1% FBS, read-out: IC50, inhibition of proliferation, A549
Text: (§1) Experimental materials: NCI-H358 cells (H358, human non-small cell lung cancer cells) were purchased from the cell bank/stem cell bank of the Chinese Academy of Sciences; RPMI-1640 culture medium (GIBCO, product number 3180002), and human tumor cell non-small cell lung cancer cell A549 were gifted by the research group of researcher Li Jia from SHANGHAI INSTITUTE OF MATERIA MEDICA, CHINESE ACADEMY OF SCIENCES. CellTier 96® The Aquarius One Solution Cell Promotion Assay (MTS) was purchased from Promega #G3581.
Experimental principle: CellTier 96 ® AQueous One Solution Cell Proliferation Assay (MTS) colorimetric method was used to detect cell proliferation. […] The amount of formazan determined by absorbance at 490 nm is directly proportional to the number of live cells in culture. […]
Cell survival rate was detected by using MTS method, that is, adherent cells growing in logarithmic phase were digested with 0.025% trypsin, and counted; 80 μl cells were inoculated into a 96 well plate at a density of 3000 cells/well for A549 and 5000 cells/well for H358 (all cultured under 1% FBS conditions), and grown overnight in a 5% CO2 and 37° C. incubator. […]
The experimental results were fitted to the IC50 using Graphpad Prism 7. […] The results were expressed as Standard Deviation (SD) or Standard Error (SE).

[3] = tested on: pancreatic cancer cell line ASPC-1; test: MTS cell proliferation assay, ASPC-1; type: cell-based; settings: ASPC-1, MTS, read-out: IC50, inhibition of proliferation, ASPC-1
Text: (§2) Experimental principle: CellTier 96 ® AQueous One Solution Cell Proliferation Assay (MTS) colorimetric method was used to detect cell proliferation. This analysis method is based on the tetrazole compound (3-(4,5-dimethylthiazol-2-yl)-5-(3-carboxymethoxyphenyl)-2-(4-sulfophenyl)-2H-tetrazolium, internal salt; MTS). The conversion of yellow MTS to blue purple water-soluble formazan is catalyzed by dehydrogenase, which exists in living cells with metabolic activity; Dead cells cannot complete the transformation from MTS to formamide. The amount of formazan determined by absorbance at 490 nm is directly proportional to the number of live cells in culture.
(§3) Sample processing: Dissolve the sample in DMSO and store it at low temperature.
(§4) Cell survival rate was detected by using MTS method, that is, adherent cells growing in logarithmic phase were digested with 0.025% trypsin, and counted; 80 μl cells were inoculated into a 96 well plate at a density of 3000 cells/well for A549 and 5000 cells/well for H358 (all cultured under 1% FBS conditions), and grown overnight in a 5% CO2 and 37° C. incubator. Each compound was diluted with a three-fold concentration gradient, eight concentrations were tested, and three wells were set for each concentration. 20 μl of the diluted compounds was added to the corresponding cell wells. Adherent cells A549 and H358 were cultured in a 5% CO2 and 37° C. incubator for 72 hours; 20 μl of MTS was added separately and incubated for 2 hours in a 5% CO2 and 37° C. incubator. Molecular Device VersaMax was used to test the light absorption value at 490 nm (L1), with a reference wavelength of 690 nm (L2). The (L1−L2) values were plotted against different concentrations of inhibitors and IC50 was obtained by fitting the formula.
(§5) The experimental results were fitted to the IC50 using Graphpad Prism 7. The model used for fitting was log(inhibitor) vs Response—variable slop, and the results of each assay were equipped with triple replicate wells to ensure the accuracy of the experiment. The results were expressed as Standard Deviation (SD) or Standard Error (SE).
(§6) Similarly, the antiproliferative assays of the compounds on pancreatic cancer cell line ASPC-1, human pancreatic cancer cell MIA-PACA and breast cancer cell MCF-7 were performed as above.

[4] = tested on: breast cancer cell MCF-7; test: MTS cell proliferation assay, MCF-7; type: cell-based; settings: MCF-7, MTS, read-out: IC50, inhibition of proliferation, MCF-7
Text: as §2, §3, §4, §5, §6

[5] = tested on: human pancreatic cancer cell MIA-PACA; test: MTS cell proliferation assay, MIA-PACA; type: cell-based
Text: as §2, §3, §4, §5, §6

[6] = tested on: NCI-H358 cells; test: MTS cell proliferation assay, H358; type: cell-based, human; settings: 1% FBS, read-out: IC50, inhibition of proliferation, H358
Text: as §1, §2, §3, §4, §5

[7] = Homo sapiens, MIA PaCa-2, read-out: IC50, inhibition of proliferation, MIA-PACA
[8] = Homo sapiens, NCI-H358, H358, 72 hours

Chain of Human ACLY (P53396 whole entry): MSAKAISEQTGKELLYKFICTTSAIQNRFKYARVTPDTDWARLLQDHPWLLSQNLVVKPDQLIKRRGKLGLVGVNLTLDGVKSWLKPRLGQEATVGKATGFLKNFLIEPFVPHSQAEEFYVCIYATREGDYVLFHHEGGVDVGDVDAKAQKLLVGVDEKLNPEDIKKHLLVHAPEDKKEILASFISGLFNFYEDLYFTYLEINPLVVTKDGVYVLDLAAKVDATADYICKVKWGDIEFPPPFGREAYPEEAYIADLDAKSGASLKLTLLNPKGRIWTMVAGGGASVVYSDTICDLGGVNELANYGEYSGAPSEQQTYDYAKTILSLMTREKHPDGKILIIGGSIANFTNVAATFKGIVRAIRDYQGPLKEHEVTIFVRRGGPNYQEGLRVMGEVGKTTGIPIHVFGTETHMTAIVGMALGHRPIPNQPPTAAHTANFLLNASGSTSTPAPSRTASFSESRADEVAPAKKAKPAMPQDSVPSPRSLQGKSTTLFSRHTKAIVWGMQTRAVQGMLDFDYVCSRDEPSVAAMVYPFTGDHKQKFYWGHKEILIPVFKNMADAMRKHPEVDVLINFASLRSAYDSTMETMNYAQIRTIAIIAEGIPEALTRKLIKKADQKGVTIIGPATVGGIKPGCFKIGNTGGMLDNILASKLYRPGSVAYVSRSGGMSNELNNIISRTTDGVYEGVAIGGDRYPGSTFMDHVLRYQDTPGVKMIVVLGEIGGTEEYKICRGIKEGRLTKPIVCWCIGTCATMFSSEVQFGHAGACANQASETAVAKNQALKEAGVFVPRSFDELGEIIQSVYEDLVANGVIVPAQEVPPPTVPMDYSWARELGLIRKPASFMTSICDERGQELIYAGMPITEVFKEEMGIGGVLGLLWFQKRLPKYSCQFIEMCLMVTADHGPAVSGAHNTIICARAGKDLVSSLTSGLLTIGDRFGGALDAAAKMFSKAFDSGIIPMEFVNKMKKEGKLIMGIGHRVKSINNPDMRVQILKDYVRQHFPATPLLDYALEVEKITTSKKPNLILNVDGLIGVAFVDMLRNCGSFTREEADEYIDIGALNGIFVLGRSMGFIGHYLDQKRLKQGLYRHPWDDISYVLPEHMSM

Row | SMILES | IC50 [1] [µM] | other results
1 | CC(CCCCCCC=CCCCCCCC(C)(C(=O)O)c1ccccc1)(C(=O)O)c1ccccc1 (centres unmarked) [Compound M1] | 1.7 ± 0.3 | 
2 | O=C(O)C1(CCCCCC/C=C\CCCCCCC2(C(=O)O)CC=CC2)CC=CC1 [Compound M2] | 2.9 ± 0.95 | 
3 | O=C(O)C1(CCCCCC/C=C\CCCCCCCC2(C(=O)O)CC=CC2)CC=CC1 [Compound M3] | 1 ± 0.13 | 
4 | O=C(O)C1(CCCCCC/C=C\CCCCCCC2(C(=O)O)CCCC2)CCCC1 [Compound M4] | 22.6 ± 2.7 | 
5 | O=C(O)C1(CCCCCC/C=C\CCCCCCC2(C(=O)O)C=CCC2)C=CCC1 (centres unmarked) [Compound M5] | 1.5 ± 0.45 | IC50 [2]: 12.5 ± 1.2 µM; IC50 ([3]; Homo sapiens, ASPC1): 27.3 ± 0.8 µM; IC50 ([4]; Homo sapiens, MCF7): 31.8 ± 1.7 µM; IC50 [5, 7]: 13.5 ± 18 µM; IC50 [6, 8]: 23.6 ± 1.9 µM
6 | O=C(O)C1(CCCCCC/C=C\CCCCCCC2(C(=O)O)CC=CCC2)CC=CCC1 (centres unmarked) [Compound M6] | 5.3 ± 0.98 | 
7 | C=CC(C)(CCCCCC/C=C\CCCCCCC(C)(C=C)C(=O)O)C(=O)O (centres unmarked) [Compound M7] | 4.1 ± 1.7 | 
8 | CC(CCCC/C=C\CCCCCC(C)(C(=O)O)c1ccccc1)(C(=O)O)c1ccccc1 (centres unmarked) [Compound M9] | 11.2 ± 1.61 | 
9 | C=CC(C)(CCCCCC/C=C\CCCCCCCC(C)(C=C)C(=O)O)C(=O)O (centres unmarked) [Compound M10] | 1.9 ± 0.2 | 
10 | CC(CCCCCC/C=C\CCCCCCCC(C)(C(=O)O)c1ccccc1)(C(=O)O)c1ccccc1 (centres unmarked) [Compound M11] | 1.9 ± 0.31 | 
11 | O=C(O)C1(CCCCCC/C=C\CCCCCCCC2(C(=O)O)CC=CCC2)CC=CCC1 (centres unmarked) [Compound M12] | 3.9 ± 0.2 | 
12 | O=C(O)C1(CCCCCC/C=C\CCCCCCCC2(C(=O)O)C=CCC2)C=CCC1 (centres unmarked) [Compound M13] | 2.7 ± 0.8 | 
13 | COC(=O)c1cc(Cl)c(O)c(S(=O)(=O)Nc2cc(-c3ccccc3)c(F)cc2F)c1 [NDI-091143, reference compound] | 0.0021 ± 0.0004 | IC50 ([3]; Homo sapiens, ASPC1): 83.3 ± 34.7 µM; IC50 ([4]; Homo sapiens, MCF7): 84.8 ± 45.3 µM; IC50 [5, 7]: 40.9 ± 14.3 µM; IC50 [6, 8]: 50.2 ± 27.7 µM

Further lines, with some results ahead:

Row | IC50 [1] [µM] | SMILES | other results
14 | 7 ± 0.16 | O=C(O)C1(CCCCC/C=C\CCCCCCC2(C(=O)O)C=CCC2)C=CCC1 (centres unmarked) [Compound M14] | 
15 | 52.2 ± 0.27 | CC(CCCC/C=C/CCCCCC(C)(C(=O)O)c1ccccc1)(C(=O)O)c1ccccc1 (centres unmarked) [Compound M15] | 
16 | 3.1 ± 1.3 | O=C(O)C1(CCCCCCC=CCCCCCCC2(C(=O)OCCc3ccc(Cl)cc3Cl)C=CCC2)C=CCC1 (centres unmarked) [Compound M19] | IC50 [3]: 2.7 ± 1 µM; IC50 [4]: 3.9 ± 0.5 µM; IC50 ([5]; read-out: IC50, inhibition of proliferation, MIA-PACA): 1.9 ± 0.5 µM; IC50 ([6]; H358, 72 hours): 3.5 ± 0.4 µM
17 | 3.5 ± 1.7 | CCOC(=O)C1(CCCCCC/C=C\CCCCCCC2(C(=O)O)C=CCC2)C=CCC1 (centres unmarked) [Compound M20] | 
18 | 3.8 ± 0.83 | COC(=O)C1(CCCCCC/C=C\CCCCCCC2(C(=O)O)C=CCC2)C=CCC1 (centres unmarked) [Compound M21] | 
19 | 3.3 ± 0.72 | O=C(O)C1(CCCCCC/C=C\CCCCCCC2(C(=O)OCCc3ccccc3F)C=CCC2)C=CCC1 (centres unmarked) [Compound M23] | 
20 | 5.5 ± 1.9 | O=C(O)C1(CCCCCC/C=C\CCCCCCC2(C(=O)OCc3ccc(Cl)cc3Cl)C=CCC2)C=CCC1 (centres unmarked) [Compound M24] | 
21 | 4 ± 0.86 | O=C(O)C1(CCCCCC/C=C\CCCCCCC2(C(=O)OCCc3ccc(F)cc3)C=CCC2)C=CCC1 (centres unmarked) [Compound M25] | IC50 ([3]; Homo sapiens, ASPC1): 29.2 ± 11.4 µM; IC50 ([4]; Homo sapiens, MCF7): 5.7 ± 1.5 µM; IC50 [5, 7]: 11.9 ± 2.7 µM; IC50 [6, 8]: 5.6 ± 0.5 µM
22 | 7.7 ± 0.39 | O=C(O)C1(CCCCCC/C=C\CCCCCCC2(C(=O)OCCc3ccccc3)C=CCC2)C=CCC1 (centres unmarked) [Compound M27] | 
23 | 17 ± 2.5 | O=C(O)C1(CCCCCC/C=C\CCCCCCC2(C(=O)OCCCc3ccc(Cl)cc3Cl)C=CCC2)C=CCC1 (centres unmarked) [Compound M28] | 
24 | 5.8 ± 1.8 | O=C(O)C1(CCCCCC/C=C\CCCCCCC2(C(=O)OCCc3ccc4ccccc4c3)C=CCC2)C=CCC1 (centres unmarked) [Compound M29] | IC50 ([3]; Homo sapiens, ASPC1): 28 ± 10.1 µM; IC50 ([4]; Homo sapiens, MCF7): 6.5 ± 0.4 µM; IC50 [5, 7]: 12.8 ± 1.6 µM; IC50 [6, 8]: 9 ± 1.9 µM
25 | 19.9 ± 7.8 | O=C(O)C1(CCCCCC/C=C\CCCCCCC2(C(=O)OCCc3ccc(Cl)cc3)C=CCC2)C=CCC1 (centres unmarked) [Compound M30] | 
26 | 8.5 ± 3.2 | O=C(O)C1(CCCCCC/C=C\CCCCCCC2(C(=O)OCCc3ccccc3Cl)C=CCC2)C=CCC1 (centres unmarked) [Compound M31] | 
27 | 4.6 ± 1.3 | COc1ccc(CCOC(=O)C2(CCCCCC/C=C\CCCCCCC3(C(=O)O)C=CCC3)C=CCC2)cc1 (centres unmarked) [Compound M32] | 
28 | 3.3 ± 0.45 | CC[C@H](C)n1cc(C)c2c(C(=O)NCc3c(C)cc(C)[nH]c3=O)cc(-c3ccc(N4CCN(C(=O)CCCSC(=O)C(C)(C)CCCCC/C=C\CCCCCC(C)(C)C(=O)O)CC4)nc3)cc21 [Compound M33] | 
29 | 10.2 ± 0.3 | Cc1ncsc1-c1ccc([C@H](C)NC(=O)[C@@H]2C[C@@H](O)CN2C(=O)[C@@H](NC(=O)C(C)(C)CCCCCC/C=C\CCCCCCC(C)(C)C(=O)O)C(C)(C)C)cc1 [Compound M34] | 
30 | 0.9 ± 0.1 | O=C(O)C1(CCCCCCC(=C(CCCCCCC2(C(=O)O)C=CCC2)c2ccccc2)c2ccccc2)C=CCC1 (centres unmarked) [Compound M35] | 
31 | 4.57 ± 0.41 | CC(C)(CCCCCCC=C(CCCCCCC(C)(C)C(=O)O)c1ccc(C(=O)N2CCN(c3ccccn3)CC2)cc1)C(=O)O [Compound M36] | 
32 | 5.21 ± 0.27 | CC(C)(CCCCCC/C=C(/CCCCCCC(C)(C)C(=O)O)c1ccc(C(=O)N2CCN(c3ccccn3)CC2)cc1)C(=O)O [Compound M37] | 
